Experimental data from ChEMBL document CHEMBL1129399, “N-aryl-3,3,3-trifluoro-2-hydroxy-2-methylpropanamides: KATP potassium channel openers. Modifications on the western region” (J Med Chem, 1996).

Key:
[1] = tested on: Rattus norvegicus; assay: in vivo activity was evaluated by measuring heart rate(HR) after 1 hour.; format: functional
[2] = tested on: Rattus norvegicus; assay: in vivo activity was evaluated by measuring heart rate(HR) after 3 hour.; format: functional
[3] = tested on: Rattus norvegicus; assay: in vivo activity was evaluated by measuring mean arterial pressure(MAP) after 3 hour.; format: functional, Artery
[4] = tested on: Rattus norvegicus; assay: in vivo activity was evaluated by measuring interval between bladder contractions (IC) after 5 hour.; format: functional
[5] = tested on: Rattus norvegicus; assay: in vivo activity was evaluated by measuring heart rate(HR) after 5 hour.; format: functional
[6] = tested on: Rattus norvegicus; assay: in vivo activity was evaluated by measuring mean arterial pressure(MAP) after 1 hour.; format: functional, Artery
[7] = tested on: Rattus norvegicus; assay: in vivo activity was evaluated by measuring interval between bladder contractions (IC) after 1 hour.; format: functional
[8] = tested on: Rattus norvegicus; assay: in vivo activity was evaluated by measuring interval between bladder contractions (IC) after 3 hour.; format: functional
[9] = tested on: Rattus norvegicus; assay: in vivo activity was evaluated by measuring mean arterial pressure(MAP) after 5 hour.; format: functional, Artery
[10] = tested on: Rattus norvegicus; assay: In vivo activity was evaluated by measuring interval between bladder contractions (IC) after 3 hour.; format: functional
[11] = tested on: Rattus norvegicus; assay: In vivo activity was evaluated by measuring mean arterial pressure(MAP) after 1 hour.; format: functional, Artery
[12] = tested on: Rattus norvegicus; assay: In vivo activity was evaluated by measuring mean arterial pressure(MAP) after 5 hour.; format: functional, Artery
[13] = tested on: Rattus norvegicus; assay: In vivo activity was evaluated by measuring heart rate(HR) after 3 hour.; format: functional
[14] = tested on: Rattus norvegicus; assay: In vivo activity was evaluated by measuring interval between bladder contractions (IC) after 5 hour.; format: functional
[15] = tested on: Rattus norvegicus; assay: In vivo activity was evaluated by measuring heart rate(HR) after 1 hour.; format: functional
[16] = tested on: Rattus norvegicus; assay: In vivo activity was evaluated by measuring mean arterial pressure(MAP) after 3 hour.; format: functional, Artery
[17] = tested on: Rattus norvegicus; assay: In vivo activity was evaluated by measuring heart rate(HR) after 5 hours; format: functional
[18] = tested on: Rattus norvegicus; assay: In vivo activity was evaluated by measuring interval between bladder contractions (IC) after 1 hours; format: functional
[19] = tested on: Rattus norvegicus; assay: In vivo activity was evaluated by measuring heart rate(HR) after 5 hour.; format: functional
[20] = tested on: Rattus norvegicus; assay: In vivo activity was evaluated by measuring interval between bladder contractions (IC) after 1 hour.; format: functional
[21] = tested on: Rattus norvegicus; assay: In vivo activity was evaluated by measuring mean arterial pressure (MAP) after 1 hour.; format: functional, Artery
[22] = tested on: Rattus norvegicus; assay: in vivo activity was evaluated by measuring interval between bladder contractions (IC) after 1 hour.
[23] = tested on: Rattus norvegicus; assay: In vivo activity was evaluated by measuring interval between bladder contractions (IC) after 3 hours; format: functional
[24] = tested on: Rattus norvegicus; assay: In vivo activity was evaluated by measuring heart rate(HR) after 1 hour; format: functional
[25] = tested on: Rattus norvegicus; assay: In vivo activity was evaluated by measuring interval between bladder contractions (IC) after 1 hour; format: functional
[26] = tested on: Rattus norvegicus; assay: In vivo activity was evaluated by measuring heart rate(HR) after 3 hours; format: functional
[27] = tested on: Rattus norvegicus; assay: In vivo activity was evaluated by measuring interval between bladder contractions (IC) after 5 hours; format: functional
[28] = tested on: Rattus norvegicus; assay: In vivo activity was evaluated by measuring mean arterial pressure(MAP) after 3 hours; format: functional, Artery
[29] = tested on: Rattus norvegicus; assay: In vivo activity was evaluated by measuring mean arterial pressure(MAP) after 1 hour; format: functional, Artery
[30] = tested on: Rattus norvegicus; assay: In vivo activity was evaluated by measuring mean arterial pressure(MAP) after 5 hours; format: functional, Artery

SMILES	Delta HR [1] [%]	Delta HR [2] [%]	Delta MAP [3] [%]	Delta IC [4] [%]	Delta HR [5] [%]	Delta MAP [6] [%]	Delta IC [7] [%]	Delta IC [8] [%]	Delta MAP [9] [%]	other results
CC(O)(C(=O)Nc1ccc(S(=O)(=O)c2cccnc2)cc1)C(F)(F)F (stereo unspecified)	19	3	-14	125	-2	-16	64	83	-11	
CC1(C)Oc2ccc(C#N)cc2[C@@H](N2CCCC2=O)[C@@H]1O [CROMAKALIM]										Delta IC [10]: 104%; Delta MAP [11]: -18%; Delta MAP [12]: -12%; Delta HR [13]: 13%; Delta IC [14]: 114%; Delta HR [15]: 20%; Delta MAP [16]: -14%; Delta HR [17]: 9%; Delta IC [18]: 54%
CC(O)(C(=O)Nc1ccc(S(=O)(=O)c2ccncc2)cc1)C(F)(F)F (stereo unspecified)	5	1	5	76	0	4	20	76	1	
CN(c1ccccc1)S(=O)(=O)c1ccc(NC(=O)C(C)(O)C(F)(F)F)cc1 (stereo unspecified)	-1	4	-3	56	1	-1	30	33	-4	
CC(O)(C(=O)Nc1ccc(C(=O)c2ccccc2)cc1)C(F)(F)F (stereo unspecified)										Delta HR [19]: -4%; Delta IC [10]: 73%; Delta IC [20]: 35%; Delta MAP [12]: 2%; Delta HR [13]: -3%; Delta MAP [21]: -1%; Delta IC [14]: 128%; Delta HR [15]: 2%; Delta MAP [16]: 1%
CC(O)(C(=O)Nc1ccc(S(=O)(=O)c2ccncc2)c(O)c1)C(F)(F)F (stereo unspecified)	2	2	1	95	6	1	25	42	-4	
Cc1cc(C(=O)c2ccccc2)ccc1NC(=O)C(C)(O)C(F)(F)F (stereo unspecified)	0	-1	-4	71	1	-3		50	-4	Delta IC [22]: 26%
CC(O)(C(=O)Nc1ccc(C(=O)c2cccc(F)c2)cc1)C(F)(F)F (stereo unspecified)	9	4	2	61	6	4		56	1	Delta IC [22]: 25%
CC(O)(C(=O)Nc1ccc(S(=O)(=O)c2ccccc2)cc1)C(F)(F)F (stereo unspecified)										Delta IC [23]: 79%; Delta HR [24]: 32%; Delta IC [25]: 24%; Delta HR [26]: 27%; Delta IC [27]: 97%; Delta HR [17]: -22%; Delta MAP [28]: -24%; Delta MAP [29]: -25%; Delta MAP [30]: 23%
